Results published in US9561276B2, “Method of treating onychomycosis” (DUSA PHARMACEUTICALS, INC., priority 2012, dated 2017).
Where a name gives a salt, the structure may show the parent alone.

What was measured:
mouse skin = settings: cited from earlier work
acne lesions = settings: in vivo; cited from earlier work
[1] = system: onychomycosis of the toenail; experiment: ALA-based PDT of onychomycosis with 10 day delay before red light (Example 1)
Method: A 5 percent ALA solution was prepared by dilution of 20 percent ALA Topical Solution (Levulan® Kerastick® (aminolevulinic acid HCl) for Topical Solution, 20%). The ALA solution was then applied to a healthy volunteer suffering from mild to moderate onychomycosis involving the hallux (proximal or big toe) toenail and the second toenail of the left foot. The ALA solution was applied liberally to the nail surface and the periungual skin areas. The entire toe was wrapped in an occlusive dressing (Tegaderm®) for 12 hours. Twenty-four hours post ALA application, the treated area was examined for porphryin fluorescence using a long wave UV light (Wood's Light) as an excitation source.
The subject was instructed to avoid light exposure to the treated toes. Fluorescence evaluation was performed again 10 days post ALA application.
The subject was then treated with 100 Joules/cm^2 of red light using the Sciencetech 7500 illuminator, causing an activation reaction.
The subject was again instructed to avoid light exposure to the treated toes. Follow up evaluations were performed 5 and 20 days post light treatment (15 and 30 days post ALA application).

[2] = system: onychomycosis of the toenail; settings: in vivo; cited from earlier work
onychomycosis = settings: cited from earlier work
[3] = 100 Joules/cm^2 red light 10 days post ALA

Row | SMILES | time for protoporphyrin levels to return to near pretreatment baseline (mouse skin) | time to peak protoporphyrin IX concentration (mouse skin) | time until ability of light to specifically excite protoporphyrin IX disappeared (acne lesions) [h] | sensation during light treatment, proximal toe [1, 3] | sensation during light treatment, second toe [1, 3] | local reaction (edema, redness), proximal toe ([1]; 5 days post light treatment) | local reaction (redness), second toe ([1]; 5 days post light treatment) | appearance of treated toes ([1]; 20 days after exposure to the activating red light) | adverse effects associated with the treatment ([1]; noted by subject) | local adverse reaction [2] | adverse events unrelated to the treatment site (onychomycosis; in vivo, po) | complete clearance (onychomycosis; oral, complete course of treatment (every day for three months))
1 | NCC(=O)CCC(=O)O [ALA, aminolevulinic acid] | about 18 hours | about six | ≤ 24 | only mild tingling and slight stinging | little to no sensation | only slight edema in the area around the nail plate, and mild redness of the nail bed itself | only slight redness in the nail bed | both treated toes appeared normal | no adverse effects | redness and edema (swelling) |  | 
2 | CN(C/C=C/C#CC(C)(C)C)Cc1cccc2ccccc12 [terbinafine, terbinafine hydrochloride] |  |  |  |  |  |  |  |  |  |  | gastrointestinal disorders, rashes, disruption of the sense of taste, and liver disorders | only a minority of cases
